These are literature values, as cited in patent publication EP0502042B1, “PHARMACEUTICAL COMPOSITIONS” (PHARMACIA S.p.A., priority 1989, dated 1991).

Each structure is given as a SMILES string.

The subject of the series is mice.

As for `CN1C(=O)C(O)N=C(c2ccccc2)c2cc(Cl)ccc21` (stereo not shown) [Temazepam], the “oral LD 50” value is reported as about 1000 mg/kg.
